Legend:
LoVo = test: Inhibition of cells growth by colorimetric (SRB) assay, LoVo; conditions: for GI50 / CC50: Homo sapiens, LoVo, 48 h; for GI50: read-out: GI50 LOVO, SRB assay, 48 hours exposure; for CC50: read-out: LC50 LOVO, SRB assay, 48 hours exposure; for TGI LOVO: SRB assay, 48 hours exposure
Procedure, shortened: (§1)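 Human tumour cells seeded at 5×10^3/well in RPMI 1640 10% FBS, attached 18 h, then exposed 48 h to samples at 10 to 10^−8 μg/ml in DMSO/EtOH/PBS (0.5:0.5:99). Growth read by SRB staining after TCA fixation, OD 490 nm, triplicate wells; GI, TGI and LC derived.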

SK-OV-3 = test: Inhibition of cells growth by colorimetric (SRB) assay, SK-OV-3; conditions: for GI50 / CC50: Homo sapiens, SK-OV-3, 48 h; for GI50: read-out: GI50 SKOV-3, SRB assay, 48 hours exposure; for CC50: read-out: LC50 SKOV-3, SRB assay, 48 hours exposure; for TGI SKOV-3: SRB assay, 48 hours exposure
Procedure, shortened: as §1

A-549 = test: Inhibition of cells growth by colorimetric (SRB) assay, A-549; conditions: for GI50 / CC50: Homo sapiens, A549, 48 h; for GI50: read-out: GI50 A-549, SRB assay, 48 hours exposure; for CC50: read-out: LC50 A-549, SRB assay, 48 hours exposure; for TGI A-549: SRB assay, 48 hours exposure
Procedure, shortened: as §1

DU-145 = test: Inhibition of cells growth by colorimetric (SRB) assay, DU-145; conditions: for GI50 / CC50: Homo sapiens, DU-145, 48 h; for GI50: read-out: GI50 DU-145, SRB assay, 48 hours exposure; for CC50: read-out: LC50 DU-145, SRB assay, 48 hours exposure; for TGI DU-145: SRB assay, 48 hours exposure
Procedure, shortened: as §1

SK-MEL-28 = test: Inhibition of cells growth by colorimetric (SRB) assay, SK-MEL-28; conditions: for GI50 / CC50: Homo sapiens, SK-MEL-28, 48 h; for GI50: read-out: GI50 MEL-28, SRB assay, 48 hours exposure; for CC50: read-out: LC50 MEL-28, SRB assay, 48 hours exposure; for TGI MEL-28: SRB assay, 48 hours exposure
Procedure, shortened: as §1

IGROV-ET = test: Inhibition of cells growth by colorimetric (SRB) assay, IGROV-ET; conditions: for GI50 / CC50: Homo sapiens, 48 h; for GI50: read-out: GI50 IGROV-ET, SRB assay, 48 hours exposure; for CC50: read-out: LC50 IGROV-ET, SRB assay, 48 hours exposure; for TGI IGROV-ET: SRB assay, 48 hours exposure
Procedure, shortened: as §1

[1] = Inhibition of cells growth by colorimetric (SRB) assay, HMEC1; conditions: human, HMEC1 cells, LC50 H-MEC-1, SRB assay, 48 hours exposure
HMEC1 = test: as above; conditions: for GI50: Homo sapiens, HMEC-1, 48 h, read-out: GI50 H-MEC-1, SRB assay, 48 hours exposure; for TGI H-MEC-1: SRB assay, 48 hours exposure, in M (unit assumed)
LNCaP = test: Inhibition of cells growth by colorimetric (SRB) assay, LNCaP; conditions: for GI50 / CC50: Homo sapiens, LNCaP, 48 h; for GI50: read-out: GI50 LN-caP, SRB assay, 48 hours exposure; for CC50: read-out: LC50 LN-caP, SRB assay, 48 hours exposure; for TGI LN-caP: SRB assay, 48 hours exposure
Procedure, shortened: as §1

SK-BR-3 = test: Inhibition of cells growth by colorimetric (SRB) assay, SK-BR-3; conditions: for GI50 / CC50: Homo sapiens, SK-BR-3, 48 h; for GI50: read-out: GI50 SK-BR-3, SRB assay, 48 hours exposure; for CC50: read-out: LC50 SK-BR-3, SRB assay, 48 hours exposure; for TGI SK-BR-3: SRB assay, 48 hours exposure
Procedure, shortened: as §1

IGROV-1 = test: Inhibition of cells growth by colorimetric (SRB) assay, IGROV-1; conditions: for GI50 / CC50: Homo sapiens, IGROV-1, 48 h; for GI50: read-out: GI50 IGROV, SRB assay, 48 hours exposure; for CC50: read-out: LC50 IGROV, SRB assay, 48 hours exposure; for TGI IGROV: SRB assay, 48 hours exposure
Procedure, shortened: as §1

PANC-1 = test: Inhibition of cells growth by colorimetric (SRB) assay, PANC-1; conditions: for GI50 / CC50: Homo sapiens, PANC-1, 48 h; for GI50: read-out: GI50 PANC-1, SRB assay, 48 hours exposure; for CC50: read-out: LC50 PANC-1, SRB assay, 48 hours exposure; for TGI PANC-1: SRB assay, 48 hours exposure
Procedure, shortened: as §1

K-562 = test: Inhibition of cells growth by colorimetric (SRB) assay, K-562; conditions: for GI50 / CC50: Homo sapiens, K562, 48 h; for GI50: read-out: GI50 K-562, SRB assay, 48 hours exposure; for CC50: read-out: LC50 K-562, SRB assay, 48 hours exposure; for TGI K-562: SRB assay, 48 hours exposure
Procedure, shortened: as §1

LoVo-Dox = test: Inhibition of cells growth by colorimetric (SRB) assay, LoVo-Dox; conditions: for GI50 / CC50: Homo sapiens, 48 h; for GI50: read-out: GI50 LOVO-DOX, SRB assay, 48 hours exposure; for CC50: read-out: LC50 LOVO-DOX, SRB assay, 48 hours exposure; for TGI LOVO-DOX: SRB assay, 48 hours exposure
Procedure, shortened: as §1

HT-29 = test: Inhibition of cells growth by colorimetric (SRB) assay, HT-29; conditions: for GI50 / CC50: Homo sapiens, HT-29, 48 h; for GI50: read-out: GI50 HT-29, SRB assay, 48 hours exposure; for CC50: read-out: LC50 HT-29, SRB assay, 48 hours exposure; for TGI HT-29: SRB assay, 48 hours exposure
Procedure, shortened: as §1

In the case of `Cl.Nc1nccc(-c2c3cccnc3n3c(N)nccc23)n1` [Compound 51], the GI50 (LoVo) is reported as 0.0774 µM, the CC50 (LoVo) is reported as 16 µM and the “TGI LOVO” value (LoVo) is reported as 1.84E−07. The GI50 (SK-OV-3) was 0.146 µM, the CC50 (SK-OV-3) was 28.6 µM and the “TGI SKOV-3” value (SK-OV-3) was 2.15E−06. For the same compound, the GI50 (A-549) was 0.0999 µM, the CC50 (A-549) was 4.57 µM and the “TGI A-549” value (A-549) was 3.68E−07. The GI50 (DU-145) was 0.0654 µM, the CC50 (DU-145) was 2.7 µM and the “TGI DU-145” value (DU-145) was 1.48E−07. For the same compound, the GI50 (SK-MEL-28) was 0.0925 µM, the CC50 (SK-MEL-28) was 1.37 µM and the “TGI MEL-28” value (SK-MEL-28) was 2.69E−07. For the same compound, the GI50 (IGROV-ET) was 0.0748 µM, the CC50 (IGROV-ET) was 18.6 µM and the “TGI IGROV-ET” value (IGROV-ET) was 2.25E−07. For the same compound, the CC50 at 48 h [1] was 0.143 µM, the GI50 (HMEC1) was 0.0164 µM and the “TGI H-MEC-1” value (HMEC1) was 1.54E−08. The GI50 (LNCaP) was 0.0737 µM, the CC50 (LNCaP) was 0.286 µM and the “TGI LN-caP” value (LNCaP) was 1.27E−07. The GI50 (SK-BR-3) was 0.0591 µM, the CC50 (SK-BR-3) was 0.554 µM and the “TGI SK-BR-3” value (SK-BR-3) was 1.42E−07. For the same compound, the GI50 (IGROV-1) was 0.0851 µM, the CC50 (IGROV-1) was 2.12 µM and the “TGI IGROV” value (IGROV-1) was 3.28E−07. For the same compound, the GI50 (PANC-1) was 0.161 µM, the CC50 (PANC-1) was 28.6 µM and the “TGI PANC-1” value (PANC-1) was 2.73E−06. The GI50 (K-562) was 0.311 µM, the CC50 (K-562) was 5.17 µM and the “TGI K-562” value (K-562) was 4.03E−07. The GI50 (LoVo-Dox) was 0.078 µM, the CC50 (LoVo-Dox) was 17.9 µM and the “TGI LOVO-DOX” value (LoVo-Dox) was 2.86E−07. The GI50 (HT-29) was 0.101 µM, the CC50 (HT-29) was 28.6 µM and the “TGI HT-29” value (HT-29) was 2.86E−07.

In the case of `Nc1nccc(-c2c3cccnc3n3ccccc23)n1` [Compound 56], the GI50 (LoVo) is reported as 6.74 µM, the CC50 (LoVo) is reported as 38.3 µM and the “TGI LOVO” value (LoVo) is reported as 1.63E−05. For the same compound, the GI50 (SK-OV-3) was 7.12 µM, the CC50 (SK-OV-3) was 35.5 µM and the “TGI SKOV-3” value (SK-OV-3) was 1.59E−05. For the same compound, the GI50 (A-549) was 6.28 µM, the CC50 (A-549) was 34.9 µM and the “TGI A-549” value (A-549) was 1.48E−05. The GI50 (DU-145) was 2.12 µM, the CC50 (DU-145) was 25.6 µM and the “TGI DU-145” value (DU-145) was 8.88E−06. For the same compound, the GI50 (SK-MEL-28) was 7.73 µM, the CC50 (SK-MEL-28) was 38.3 µM and the “TGI MEL-28” value (SK-MEL-28) was 1.73E−05. For the same compound, the GI50 (IGROV-ET) was 11.5 µM, the CC50 (IGROV-ET) was 38.3 µM and the “TGI IGROV-ET” value (IGROV-ET) was 2.35E−05. For the same compound, the CC50 at 48 h [1] was 22.3 µM, the GI50 (HMEC1) was 3.9 µM and the “TGI H-MEC-1” value (HMEC1) was 9.34E−06. For the same compound, the GI50 (LNCaP) was 5.93 µM, the CC50 (LNCaP) was 20.6 µM and the “TGI LN-caP” value (LNCaP) was 1.11E−05. For the same compound, the GI50 (SK-BR-3) was 5.32 µM, the CC50 (SK-BR-3) was 38.3 µM and the “TGI SK-BR-3” value (SK-BR-3) was 1.88E−05. For the same compound, the GI50 (IGROV-1) was 8.69 µM, the CC50 (IGROV-1) was 38.3 µM and the “TGI IGROV” value (IGROV-1) was 1.91E−05. For the same compound, the GI50 (PANC-1) was 8.96 µM, the CC50 (PANC-1) was 38.3 µM and the “TGI PANC-1” value (PANC-1) was 1.94E−05. For the same compound, the GI50 (K-562) was 8.23 µM, the CC50 (K-562) was 38.3 µM and the “TGI K-562” value (K-562) was 1.83E−05. For the same compound, the GI50 (LoVo-Dox) was 5.93 µM, the CC50 (LoVo-Dox) was 38.3 µM and the “TGI LOVO-DOX” value (LoVo-Dox) was 1.66E−05. The GI50 (HT-29) was 12.5 µM, the CC50 (HT-29) was 38.3 µM and the “TGI HT-29” value (HT-29) was 3.46E−05.
